According to patent EP4799619A1, “COMPOUND TARGETING EGR-1 AND USE THEREOF FOR TREATMENT OF ATOPIC DERMATITIS” (AgeraMedi, Inc., priority 2023, dated 2025):

Target: EGR-1 (Homo sapiens, UniProt P18146)
Assay: EGR-1 DNA binding activity assay (EDBA)
Set-up: made in house
Details: EGR-1 DNA binding inhibitory activity; EGR-1 overexpressing cell lysate; absorbance at 450 nm; compound concentration not given
Experimental: In this experiment, the inhibitory effect of the compounds of the present invention on EGR-1 binding activity was evaluated using an EGR-1 DNA binding activity assay (EDBA).
Single-stranded sense and antisense oligonucleotides of the following EGR-1 binding sequence (EBS) were prepared by outsourcing to Bioneer Co., Ltd. (Daejeon, Korea). In this case, the 5'-end of the sense oligonucleotide was labeled with biotin. The sense and antisense oligonucleotides were heated at 95 °C for 5 minutes and then left overnight at room temperature to hybridize the sense and antisense oligonucleotides. Hereinafter, the hybridized sense and antisense oligonucleotides are referred to as biotin-EBS. • Sense sequence: biotin-5'-[…]-3' • Antisense sequence: 5'-[…]-3'
Avidin protein was coated on a 96-well plate (purchased from Thermo Fisher Scientific), and biotin-EBS was added to the plate at a concentration of 0.5 pmol/50 µL/well, followed by reaction at 37 °C for 1 hour to allow biotin-EBS oligonucleotide to be attached to the plate. After washing three times with phosphate buffer saline containing 0.05% Tween 20 (PBS/Tween 20) to remove unattached biotin-EBS oligonucleotides, 200 µL of PBS/Tween 20 solution containing 2% bovine serum albumin (BSA) was added to each well, followed by reaction at 37 °C for 1 hour to block the surface of the plate where no oligonucleotide was attached.
The solution containing the sample compound and the EGR-1 protein was added to the biotin-EBS oligonucleotide coated plate prepared in step (2).
The compound sample (1 µL) was reacted with the EGR-1 overexpressing cell lysate containing 10 mM Tris, pH 7.5, 50 mM KCl, 2% BSA and 8% glycerol at room temperature for 30 minutes, and then added to a reaction well coated with biotin-EBS and further reacted at room temperature for one hour. After washing three times with PBS/Tween 20 solution, an EGR-1 antibody was added to the PBS solution supplemented with 2% BSA and 5 mM NaCl in an amount of 50 µL per each well. The mixture was incubated at room temperature for one hour, washed three times with PBS/Tween 20 solution, and then treated with horseradish peroxidase-conjugated secondary antibody (Goat anti-rabbit IgG antibody, Cell Signaling Technology company, Danvers, Mass., USA) diluted by 1:1000 at room temperature for one hour. After washing five times with PBS/Tween 20 solution, a substrate tetramethylbenzidine solution was added to each well in an amount of 50 µL. After reacting for 5 minutes, the reaction was stopped by adding 100 µL of 2 N sulfuric acid solution. The DNA binding inhibitory activity of EGR-1 was measured by absorbance at 450 nm according to Equation 1 below. EGR-1 DNA binding inhibitory activity (%) = 100−{(As/Ap)×100} [formula]
As: absorbance of a sample prepared by reacting an EGR-1-overexpressing cell lysate with the compound.
Ap: absorbance of the sample treated only with EGR-1-overexpressing cell lysate.

Chain of EGR-1 (P18146 whole entry): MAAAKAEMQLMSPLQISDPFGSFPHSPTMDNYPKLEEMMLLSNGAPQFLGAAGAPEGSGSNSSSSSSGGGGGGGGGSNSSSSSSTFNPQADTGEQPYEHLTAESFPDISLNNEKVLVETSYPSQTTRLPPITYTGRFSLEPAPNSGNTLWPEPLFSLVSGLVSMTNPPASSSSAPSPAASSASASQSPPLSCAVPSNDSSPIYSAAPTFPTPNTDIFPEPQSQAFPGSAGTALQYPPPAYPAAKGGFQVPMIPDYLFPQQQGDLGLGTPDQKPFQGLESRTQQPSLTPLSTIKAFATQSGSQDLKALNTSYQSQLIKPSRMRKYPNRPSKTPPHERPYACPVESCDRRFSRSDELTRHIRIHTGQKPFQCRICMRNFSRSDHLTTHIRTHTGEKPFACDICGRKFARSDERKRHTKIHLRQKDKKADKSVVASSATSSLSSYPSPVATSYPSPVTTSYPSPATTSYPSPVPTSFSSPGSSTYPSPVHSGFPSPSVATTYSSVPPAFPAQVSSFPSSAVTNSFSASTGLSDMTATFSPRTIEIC

| Structure (SMILES) | Inhibition Rate (%) |
| --- | --- |
| O=C1Nc2ccc(OC(F)(F)F)cc2/C1=N/NC(=S)Nc1ccc(F)cc1 [Compound 78, (Z)-N-(4-fluorophenyl)-2-(2-oxo-5-(trifluoromethoxy)indolin-3-ylidene)hydrazinethioamide] | 33.93% |
| O=C1Nc2ccc(OC(F)(F)F)cc2/C1=N/NC(=S)Nc1cccc([N+](=O)[O-])c1 [Compound 77, (Z)-N-(3-nitrophenyl)-2-(2-oxo-5-(trifluoromethoxy)indolin-3-ylidene)hydrazinethioamide] | 37.37% |
| O=C1Nc2ccc(F)cc2/C1=N/NC(=S)NCc1ccccc1 [Compound 63, (Z)-N-benzyl-2-(5-fluoro-2-oxoindolin-3-ylidene)hydrazinethioamide] | 48.77% |
| Cc1ccc2c(c1)/C(=N/NC(=S)Nc1cccc(C(F)(F)F)c1)C(=O)N2 [Compound 32, (Z)-2-(5-methyl-2-oxoindolin-3-ylidene)-N-(3-(trifluoromethyl)phenyl)hydrazinethioamide] | 40.93% |
| Cc1ccc2c(c1)/C(=N/NC(=S)NCc1ccccc1)C(=O)N2 [Compound 74, (Z)-N-benzyl-2-(5-methyl-2-oxoindolin-3-ylidene)hydrazinethioamide] | 40.60% |
| Cc1ccc2c(c1)/C(=N/NC(=S)Nc1ccc(Br)cc1)C(=O)N2 [Compound 70, (Z)-N-(4-bromophenyl)-2-(5-methyl-2-oxoindolin-3-ylidene)hydrazinethioamide] | 29.60% |
| COc1ccc(NC(=S)N/N=C2\C(=O)Nc3cccc(Br)c32)cc1 [Compound 54, (Z)-2-(4-bromo-2-oxoindolin-3-ylidene)-N-(4-methoxyphenyl)hydrazinethioamide] | 12.67% |
| O=C1Nc2c(F)cccc2/C1=N/NC(=S)Nc1ccc([N+](=O)[O-])cc1 [Compound 65, (Z)-2-(7-fluoro-2-oxoindolin-3-ylidene)-N-(4-nitrophenyl)hydrazinethioamide] | 43.03% |
| COc1ccc2c(c1)NC(=O)/C2=N\NC(=S)Nc1ccc(Br)cc1 [Compound 68, (Z)-N-(4-bromophenyl)-2-(6-methoxy-2-oxoindolin-3-ylidene)hydrazin-1-carbothioamide] | 17.80% |
| NNC(=S)NC(=O)c1ccccc1 [Compound 9, N-(hydrazinocarbonothioyl)benzamide] | 42.17% |
| COc1ccc2c(c1)NC(=O)/C2=N\NC(=S)Nc1cccc(C(F)(F)F)c1 [Compound 66, (Z)-2-(6-methoxy-2-oxoindolin-3-ylidene)-N-(3-(trifluoromethyl)phenyl)hydrazinethioamide] | 11.70% |
| O=C1Nc2ccc(OC(F)(F)F)cc2/C1=N/NC(=S)Nc1ccc(Br)cc1 [Compound 79, (Z)-N-(4-bromophenyl)-2-(2-oxo-5-(trifluoromethoxy)indolin-3-ylidene)hydrazinethioamide] | 42.27% |
| COc1ccc2c(c1)NC(=O)/C2=N\NC(=S)Nc1ccc(F)cc1 [Compound 67, (Z)-N-(4-fluorophenyl)-2-(6-methoxy-2-oxoindolin-3-ylidene)hydrazin-1-carbothioamide] | 25.90% |
| O=C1Nc2cc(Br)ccc2/C1=N/NC(=S)Nc1cccc([N+](=O)[O-])c1 [Compound 36, (Z)-2-(6-bromo-2-oxoindolin-3-ylidene)-N-(3-nitrophenyl)hydrazinethioamide] | 46.33% |
| O=C1Nc2ccccc2/C1=N/NC(=S)Nc1ccc(F)cc1 [Compound 57, (Z)-N-(4-fluorophenyl)-2-(2-oxoindolin-3-ylidene)hydrazinethioamide] | 40.10% |
| CC(C)NC(=S)NN [Compound 7, N-isopropylhydrazinethioamide] | 23.33% |
| COc1ccc(NC(=S)N/N=C2\C(=O)Nc3ccc(Br)cc32)cc1 [Compound 55, (Z)-2-(5-bromo-2-oxoindolin-3-ylidene)-N-(4-methoxyphenyl)hydrazinethioamide] | 11.00% |
| COc1cccc(NC(=S)N/N=C2\C(=O)Nc3cccc(Br)c32)c1 [Compound 51, (Z)-2-(4-bromo-2-oxoindolin-3-ylidene)-N-(3-methoxyphenyl)hydrazinethioamide] | 28.67% |

| Structure (SMILES) | Inhibition Rate (%) |
| --- | --- |
| Cc1cccc(NC(=S)N/N=C2\C(=O)Nc3ccc(C)cc32)c1 [Compound 75, (Z)-2-(5-methyl-2-oxoindolin-3-ylidene)-N-(m-tolyl)hydrazinethioamide] | 39.27% |
| COc1ccc2c(c1)NC(=O)/C2=N\NC(=S)Nc1cccc(C)c1 [Compound 28, (Z)-2-(6-methoxy-2-oxoindolin-3-ylidene)-N-(m-tolyl)hydrazinethioamide] | 28.67% |
| O=C1Nc2cccc(Br)c2/C1=N/NC(=S)Nc1cccc([N+](=O)[O-])c1 [Compound 35, (Z)-2-(4-bromo-2-oxoindolin-3-ylidene)-N-(3-nitrophenyl)hydrazinethioamide] | 55.33% |
| COc1ccccc1NC(=S)N/N=C1\C(=O)Nc2ccc(C)cc21 [Compound 31, (Z)-N-(2-methoxyphenyl)-2-(5-methyl-2-oxoindolin-3-ylidene)hydrazinethioamide] | 42.73% |
| O=C1Nc2c(Br)cccc2/C1=N/NC(=S)Nc1cccc([N+](=O)[O-])c1 [Compound 49, (Z)-2-(7-bromo-2-oxoindolin-3-ylidene)-N-(3-nitrophenyl)hydrazinethioamide] | 50.33% |
| O=C1Nc2c(F)cccc2/C1=N/NC(=S)Nc1ccc(F)cc1 [Compound 18, (Z)-2-(7-fluoro-2-oxoindolin-3-ylidene)-N-(4-fluorophenyl)hydrazinethioamide] | 33.80% |
| NNC(=S)NCc1ccccc1 [Compound 10, N-benzylhydrazinethioamide] | 35.47% |
| N#Cc1ccc(NC(=S)N/N=C2\C(=O)Nc3ccc(F)cc32)cc1 [Compound 16, (Z)-N-(4-cyanophenyl)-2-(5-fluoro-2-oxoindolin-3-ylidene)hydrazinethioamide] | 40.57% |
| Cc1ccc2c(c1)/C(=N/NC(=S)Nc1cccc([N+](=O)[O-])c1)C(=O)N2 [Compound 30, (Z)-2-(5-methyl-2-oxoindolin-3-ylidene)-N-(3-nitrophenyl)hydrazinethioamide] | 32.70% |
| NC(=S)N/N=C1\C(=O)Nc2c(Br)cccc21 [Compound 42, (Z)-2-(7-bromo-2-oxoindolin-3-ylidene)hydrazinethioamide] | 53.00% |
| O=C1Nc2cc(Br)ccc2/C1=N/NC(=S)Nc1ccccc1 [Compound 45, (Z)-2-(6-bromo-2-oxoindolin-3-ylidene)-N-phenylhydrazinethioamide] | 9.33% |
| O=C1Nc2ccccc2/C1=N/NC(=S)Nc1cccc([N+](=O)[O-])c1 [Compound 47, (Z)-N-(3-nitrophenyl)-2-(2-oxoindolin-3-ylidene)hydrazinethioamide] | 35.33% |
| N#Cc1ccc(NC(=S)NN)cc1 [Compound 4, N-(4-cyanophenyl)hydrazinethioamide] | 16.27% |
| Cc1ccc2c(c1)/C(=N/NC(=S)Nc1ccccc1)C(=O)N2 [Compound 29, (Z)-2-(5-methyl-2-oxoindolin-3-ylidene)-N-phenylhydrazinethioamide] | 27.50% |
| COc1ccccc1NC(=S)N/N=C1\C(=O)Nc2cccc(Cl)c21 [Compound 61, (Z)-2-(4-chloro-2-oxoindolin-3-ylidene)-N-(2-methoxyphenyl)hydrazinethioamide] | 43.03% |
| O=C1Nc2cc(Br)ccc2/C1=N/NC(=S)Nc1ccc([N+](=O)[O-])cc1 [Compound 58, (Z)-2-(6-bromo-2-oxoindolin-3-ylidene)-N-(4-nitrophenyl)hydrazinethioamide] | 46.97% |
| COc1cccc(NC(=S)N/N=C2\C(=O)Nc3ccccc32)c1 [Compound 50, (Z)-N-(3-methoxyphenyl)-2-(2-oxoindolin-3-ylidene)hydrazinethioamide] | 27.33% |
| O=C1Nc2ccc(Br)cc2/C1=N/NC(=S)Nc1ccccc1 [Compound 44, (Z)-2-(5-bromo-2-oxoindolin-3-ylidene)-N-phenylhydrazinethioamide] | 5.67% |
